Assay results taken from patent publication US20240317706A1, “COMPOUNDS THAT MEDIATE PROTEIN DEGRADATION AND METHODS OF USE THEREOF” (Monte Rosa Therapeutics, Inc., priority 2021, published 2024).

Assays:
CDK2 = molecular target: T1, CDK2 (Homo sapiens, UniProt P24941); experiment: NanoBiT assay (CDK2 degradation); type: cell-based; conditions: HEK293, HEK293 clonal line with CRISPR KI HiBiT tag on CDK2, Endurazine live cell substrate, 24 hours
T1 construct: HEK293 clonal lines with CRISPR KI HiBiT tag on CDK2 proteins; host or cells: HEK293 clonal line, CRISPR knock-in HiBiT-CDK2, stably expressing LgBiT
Procedure: HEK293 clonal lines with CRISPR KI HiBiT tag on either CDK2 proteins and stably expressing LgBiT protein were obtained from Promega (Madison, WI). Cells were plated at 5000 cells per well using Multiflo (BioTek) in 384-well white solid bottom plates (Corning, 3570BC) in 25 ul volume in DMEM media (DMEM, high glucose, HEPES, no phenol red (ThermoFisher Scientific, 21063029)) containing 10% FBS (Corning, 35-075-CV), 1% Penicillin/Streptomycin ((ThermoFisher Scientific, 15140-122), and 1% Endurazine (Nano-Glo Endurazine Live Cell Substrate (Promega, N2571)). Cells were incubated for 16 hours at 37 C, 5% CO2. 75 nL of a compound at 30 μM were dosed into the plate using an Echo® 650 liquid handler (Labcyte). Cells were incubated at 37° C., 5% CO2 for 24 hours and then signal was read on a Pherastar FSX using “LUM plus” optic module.
Analysis was performed in Scinamic (Scinamic, Cambridge, MA). Luminescence response (R) was calculated by the formula: response=100*(S−N)/(P−N) where S is the signal of the well, N and P the mean negative and positive control values respectively of the same plate. The luminescence response was then fitted in Scinamic using a 3-parameter agonist logistic fit (hillslope=1, EC50>0, top/bottom unconstrained).

CRBN-DDB1 = CRBN-DDB1 (Homo sapiens, UniProt Q96SW2); experiment: Compound binding to CRBN by HTRF assay; conditions: CRBN-DDB1 2.5 nM, Cy5-Thalidomide 100 nM, 30 min; Ki from geometric mean IC50 by Cheng-Prustoff transformation
Sequence of CRBN-DDB1 (Q96SW2 whole entry): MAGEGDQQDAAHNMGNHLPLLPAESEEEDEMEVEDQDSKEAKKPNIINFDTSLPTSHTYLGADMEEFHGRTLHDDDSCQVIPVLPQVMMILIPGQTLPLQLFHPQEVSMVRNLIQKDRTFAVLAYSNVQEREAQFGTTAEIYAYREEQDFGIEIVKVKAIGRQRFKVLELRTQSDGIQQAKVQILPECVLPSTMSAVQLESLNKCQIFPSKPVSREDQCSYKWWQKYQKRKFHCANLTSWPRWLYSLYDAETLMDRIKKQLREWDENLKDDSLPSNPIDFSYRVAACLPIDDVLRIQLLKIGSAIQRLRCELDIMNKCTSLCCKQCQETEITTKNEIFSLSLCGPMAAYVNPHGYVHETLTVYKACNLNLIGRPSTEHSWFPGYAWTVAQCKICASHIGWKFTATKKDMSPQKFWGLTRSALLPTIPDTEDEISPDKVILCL
Sequence of CRBN-DDB1 (Q16531 whole entry partner): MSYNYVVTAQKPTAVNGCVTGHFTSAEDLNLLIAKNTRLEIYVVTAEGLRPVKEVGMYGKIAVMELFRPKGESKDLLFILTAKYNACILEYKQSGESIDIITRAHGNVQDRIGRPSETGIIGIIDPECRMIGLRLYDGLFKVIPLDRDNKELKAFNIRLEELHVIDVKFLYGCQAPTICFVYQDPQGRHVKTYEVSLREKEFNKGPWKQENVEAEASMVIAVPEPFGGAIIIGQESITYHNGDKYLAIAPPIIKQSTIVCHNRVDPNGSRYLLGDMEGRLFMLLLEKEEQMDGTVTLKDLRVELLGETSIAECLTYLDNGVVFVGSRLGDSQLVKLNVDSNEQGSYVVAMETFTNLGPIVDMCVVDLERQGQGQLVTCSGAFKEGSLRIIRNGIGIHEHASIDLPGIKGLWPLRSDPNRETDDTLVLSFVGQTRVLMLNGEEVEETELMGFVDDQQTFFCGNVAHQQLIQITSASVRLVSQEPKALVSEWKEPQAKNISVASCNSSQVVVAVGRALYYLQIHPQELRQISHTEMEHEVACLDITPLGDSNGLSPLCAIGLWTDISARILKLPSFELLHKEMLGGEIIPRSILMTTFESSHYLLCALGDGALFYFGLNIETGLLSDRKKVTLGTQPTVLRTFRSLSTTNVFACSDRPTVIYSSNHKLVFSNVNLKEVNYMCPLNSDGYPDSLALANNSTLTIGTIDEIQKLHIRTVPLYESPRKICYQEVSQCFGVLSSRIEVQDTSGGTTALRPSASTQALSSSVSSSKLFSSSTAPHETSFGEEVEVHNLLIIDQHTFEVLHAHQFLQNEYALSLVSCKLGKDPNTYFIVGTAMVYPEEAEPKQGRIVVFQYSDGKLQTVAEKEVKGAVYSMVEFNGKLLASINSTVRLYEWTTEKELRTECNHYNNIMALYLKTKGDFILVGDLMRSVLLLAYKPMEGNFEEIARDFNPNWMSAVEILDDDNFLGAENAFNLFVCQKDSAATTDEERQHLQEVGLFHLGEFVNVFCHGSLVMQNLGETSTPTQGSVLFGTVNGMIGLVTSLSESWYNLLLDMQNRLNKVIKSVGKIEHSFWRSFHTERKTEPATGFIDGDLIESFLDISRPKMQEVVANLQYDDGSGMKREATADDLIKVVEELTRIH
Procedure: Compound activity was monitored in a Homogenous Time-Resolved Fluorescence (HTRF) assay using 1-[5-({2-[2-(2-{[2-(2,6-dioxopiperidin-3-yl)-1,3-dioxo-2,3-dihydro-1H-isoindol-4-yl]oxy}acetamido)ethoxy]ethyl}carbamoyl)pentyl]-3,3-dimethyl-2-[(1E,3E)-5-[(2E)-1,3,3-trimethyl-5-sulfo-2,3-dihydro-1H-indol-2-ylidene]penta-1,3-dien-1-yl]-3H-indol-1-ium-5-sulfonate as a fluorescent probe. Biochemical assays were conducted in Greiner white 384 well HiBase plates (Cat. No 784075-25) in 10 μL total volume. A one pot detection solution of CRBN-DDB1 (2.5 nM), Anti-His Terbium Cryptate Gold (1×, PerkinElmer Cat. #: 61HI2TLB), and Cy5-Thalidomide (100 nM, Tenova Cat.: T52461) was prepared in 20 mM HEPES, 20 mM NaCl, 0.2 mM TCEP, 0.2 mM EDTA, and 0.005% Tween20 was dispensed to each assay plate. Compounds were stored in dry, ambient temperatures at 10 mM. A 10-point, 1:3 dilution series was prepared from 10 mM stock concentrations in Echo-compatible LDV plates. 10 nL of each compound dilution series was dispensed into assays wells using an Echo 650 (Labcyte inc. USA). 10 nL of 10 mM Lenalidomide was transferred into the active-control wells for the assay and 10 nL of DMSO was transferred into the neutral-control wells. The assay was then allowed to incubate for 30 min at ambient temperature after transferring compound. Plate measurements were taken on a Pherastar FSX (BMG Labtech, Germany) using the HTRF Red filter (Ex. 337 nm, em1: 620 nm, em2: 665 nm) (Flashes: 50, Integration time: 60-400 us, Z-height: 10 mm, Ratio-multiplier: 10,000). The HTRF signal was then subsequently normalized to the neutral and active controls. Analysis and IC50 values were derived using KNIME analytics (KNIME Zurich) transformation and fitting within Collaborative Drug Discovery (Collaborative Drug Discovery USA). Ki was derived from the geometric mean of the IC50 values using the Cheng-Prustoff transformation.

Row | SMILES | Dmax (CDK2) [%] | Ki (CRBN-DDB1) [nM]
1 | O=C1CCC(N2Cc3ccc(CNC(=S)OCC4CC5(CCC5)C4)cc3C2=O)C(=O)N1 (stereo not drawn) [Compound 111, O-(spiro[3.3]heptan-2-ylmethyl) ((2-(2,6-dioxopiperidin-3-yl)-3-oxoisoindolin-5-yl)methyl)carbamothioate] | 10 to 50 | ≤ 100
2 | CN(C)C(=O)N1CC(OC(=O)NCc2ccc3c(c2)C(=O)N(C2CCC(=O)NC2=O)C3)C1 (stereo not drawn) [Compound 112, 1-(dimethylcarbamoyl)azetidin-3-yl ((2-(2,6-dioxopiperidin-3-yl)-3-oxoisoindolin-5-yl)methyl)carbamate] | 10 to 50 | 100 to 1000
3 | CC(OC(=O)NCc1ccc2c(c1)C(=O)N(C1CCC(=O)NC1=O)C2)C1CC2(CCC2)C1 (stereo not drawn) [Compound 113, 1-(spiro[3.3]heptan-2-yl)ethyl ((2-(2,6-dioxopiperidin-3-yl)-3-oxoisoindolin-5-yl)methyl)carbamate] | 10 to 50 | 100 to 1000
4 | CC(NC(=O)OCC1CC2(CCC2)C1)c1ccc2c(c1)C(=O)N(C1CCC(=O)NC1=O)C2 (stereo not drawn) [Compound 114] | 10 to 50 | 100 to 1000
5 | O=C1CCC(N2Cc3ccc(CNC(=O)OCC4CC5(CCCC5)C4)cc3C2=O)C(=O)N1 (stereo not drawn) [Compound 115, spiro[3.4]octan-2-ylmethyl ((2-(2,6-dioxopiperidin-3-yl)-3-oxoisoindolin-5-yl)methyl)carbamate] | 50 to 80 | 100 to 1000
6 | CC(C)[C@@H]1C[C@H]1COC(=O)NCc1ccc2c(c1)C(=O)N(C1CCC(=O)NC1=O)C2 (stereo partly drawn) [Compound 116, ((1R,2S)-2-isopropylcyclopropyl)methyl ((2-(2,6-dioxopiperidin-3-yl)-3-oxoisoindolin-5-yl)methyl)carbamate] | 10 to 50 | 100 to 1000
7 | O=C1CCC(N2C(=O)c3ccc(CNC(=O)OCC4CC5(CCC5)C4)cc3C2=O)C(=O)N1 (stereo not drawn) [Compound 117, spiro[3.3]heptan-2-ylmethyl ((2-(2,6-dioxopiperidin-3-yl)-1,3-dioxoisoindolin-5-yl)methyl)carbamate] | > 80 | 100 to 1000
8 | O=C1CCC(N2Cc3ccc(C4(NC(=O)OCC5CC6(CCC6)C5)CC4)cc3C2=O)C(=O)N1 (stereo not drawn) [Compound 118, spiro[3.3]heptan-2-ylmethyl (1-(2-(2,6-dioxopiperidin-3-yl)-3-oxoisoindolin-5-yl)cyclopropyl)carbamate] | 50 to 80 | 100 to 1000
9 | C[C@H]1C[C@H](COC(=O)NCc2ccc3c(c2)C(=O)N(C2CCC(=O)NC2=O)C3)C1 (stereo partly drawn) [Compound 119] | 10 to 50 | 100 to 1000
10 | C[C@H]1C[C@@H](COC(=O)NCc2ccc3c(c2)C(=O)N(C2CCC(=O)NC2=O)C3)C1 (stereo partly drawn) [Compound 120, ((1s,3s)-3-methylcyclobutyl)methyl ((2-(2,6-dioxopiperidin-3-yl)-3-oxoisoindolin-5-yl)methyl)carbamate] | 10 to 50 | 100 to 1000
11 | O=C1CCC(N2Cc3ccc(CNC(=O)OC4CC5(CCCC5)C4)cc3C2=O)C(=O)N1 (stereo not drawn) [Compound 121, spiro[3.4]octan-2-yl ((2-(2,6-dioxopiperidin-3-yl)-3-oxoisoindolin-5-yl)methyl)carbamate] | 10 to 50 | 100 to 1000
12 | O=C1CCC(N2Cc3c(F)cc(CNC(=O)OCC4CC5(CCC5)C4)cc3C2=O)C(=O)N1 (stereo not drawn) [Compound 122, spiro[3.3]heptan-2-ylmethyl ((2-(2,6-dioxopiperidin-3-yl)-7-fluoro-3-oxoisoindolin-5-yl)methyl)carbamate] | 50 to 80 | 100 to 1000
13 | O=C1CCC(N2Cc3cc(F)c(CNC(=O)OCC4CC5(CCC5)C4)cc3C2=O)C(=O)N1 (stereo not drawn) [Compound 123, spiro[3.3]heptan-2-ylmethyl ((2-(2,6-dioxopiperidin-3-yl)-6-fluoro-3-oxoisoindolin-5-yl)methyl)carbamate] | 10 to 50 | 100 to 1000
14 | O=C1CCC(N2Cc3ccc(CNC(=O)OCCC4CC5(CCC5)C4)cc3C2=O)C(=O)N1 (stereo not drawn) [Compound 124, 2-(spiro[3.3]heptan-2-yl)ethyl ((2-(2,6-dioxopiperidin-3-yl)-3-oxoisoindolin-5-yl)methyl)carbamate] | 10 to 50 | 100 to 1000
15 | O=C1CCC(N2Cc3ccc(CNC(=O)OCC4CC5(C4)CC(F)(F)C5)cc3C2=O)C(=O)N1 (stereo not drawn) [Compound 125, (6,6-difluorospiro[3.3]heptan-2-yl)methyl ((2-(2,6-dioxopiperidin-3-yl)-3-oxoisoindolin-5-yl)methyl)carbamate] | 10 to 50 | 100 to 1000
16 | O=C1CCC(N2Cc3ccc(CNC(=O)OCC4CC5(CC5)C4)cc3C2=O)C(=O)N1 (stereo not drawn) [Compound 126, spiro[2.3]hexan-5-ylmethyl ((2-(2,6-dioxopiperidin-3-yl)-3-oxoisoindolin-5-yl)methyl)carbamate] | 10 to 50 | 100 to 1000
17 | O=C1CCC(N2Cc3ccc(CNC(=O)OCC4CC5(C4)CC4(CCC4)C5)cc3C2=O)C(=O)N1 (stereo not drawn) [Compound 127, dispiro[3.1.36.14]decan-2-ylmethyl((2-(2,6-dioxopiperidin-3-yl)-3-oxoisoindolin-5-yl)methyl)carbamate] | 50 to 80 | ≤ 100
18 | O=C1CCC(N2Cc3ccc(CNC(=O)OCCCC4CCC4)cc3C2=O)C(=O)N1 (stereo not drawn) [Compound 128, 3-cyclobutylpropyl ((2-(2,6-dioxopiperidin-3-yl)-3-oxoisoindolin-5-yl)methyl)carbamate] | 10 to 50 | 100 to 1000
19 | CC1(C)[C@H]2CC=C(CCOC(=O)NCc3ccc4c(c3)C(=O)N(C3CCC(=O)NC3=O)C4)[C@@H]1C2 (stereo partly drawn) [Compound 129, 2-((1R,5S)-6,6-dimethylbicyclo[3.1.1]hept-2-en-2-yl)ethyl ((2-(2,6-dioxopiperidin-3-yl)-3-oxoisoindolin-5-yl)methyl)carbamate] | 10 to 50 | 100 to 1000
20 | O=C1CCC(N2Cc3ccc(CNC(=O)OC4CCC5(CC4)CC5)cc3C2=O)C(=O)N1 (stereo not drawn) [Compound 130, spiro[2.5]octan-6-yl ((2-(2,6-dioxopiperidin-3-yl)-3-oxoisoindolin-5-yl)methyl)carbamate] | 10 to 50 | 100 to 1000
21 | CC(C)(C)C12CC(COC(=O)NCc3ccc4c(c3)C(=O)N(C3CCC(=O)NC3=O)C4)(C1)C2 (stereo not drawn) [Compound 131, (3-(tert-butyl)bicyclo[1.1.1]pentan-1-yl)methyl((2-(2,6-dioxopiperidin-3-yl)-3-oxoisoindolin-5-yl)methyl)carbamate] | 10 to 50 | 100 to 1000
22 | O=C1CCC(N2Cc3ccc(CNC(=O)OC[C@@H]4C[C@H]4c4ccccc4)cc3C2=O)C(=O)N1 (stereo partly drawn) [Compound 132, ((1R,2R)-2-phenylcyclopropyl)methyl ((2-(2,6-dioxopiperidin-3-yl)-3-oxoisoindolin-5-yl)methyl)carbamate] | 10 to 50 | 100 to 1000
23 | O=C1CCC(N2Cc3ccc(CNC(=O)OC4CCC5(CCC5)CC4)cc3C2=O)C(=O)N1 (stereo not drawn) [Compound 133, spiro[3.5]nonan-7-yl ((2-(2,6-dioxopiperidin-3-yl)-3-oxoisoindolin-5-yl)methyl)carbamate] | 10 to 50 | 100 to 1000
24 | CC1(CCCCOC(=O)NCc2ccc3c(c2)C(=O)N(C2CCC(=O)NC2=O)C3)CC1 (stereo not drawn) [Compound 134, 4-(1-methylcyclopropyl)butyl ((2-(2,6-dioxopiperidin-3-yl)-3-oxoisoindolin-5-yl)methyl)carbamate] | 10 to 50 | ≤ 100
